Values of other authors, collected in patent publication US20240165186A1, “Synergistically Formulated Compound for Mitochondria Supplementation and Enhancement” (priority 2022, published 2024).

Conditions: relative to vitamin C; no test described

O=C(O)c1cc(C(=O)O)c2c(n1)C(=O)C(=O)c1cc(C(=O)O)[nH]c1-2 [PQQ, Pyrroloquinoline Quinone]
times more effective than vitamin C as an antioxidant: ≤ 1000 times
